Experimental data reported in patent US20210379199A1, “COPPER NANOCLUSTERS, COMPOSITION COMPRISING THE SAME, AND TREATMENT OF NEURODEGENERATIVE DISEASES” (Shenzhen Profound-View Pharma Tech Co., Ltd, priority 2019, published 2021).

Assays:
α-syn = molecular target: T1, α-syn (Homo sapiens, UniProt P37840); experiment: α-syn aggregation kinetics, ThT fluorescent labeling; type: biochemical; details: 35 μM α-syn, 5 ppm CuNCs or ligand alone, 37° C., 70 hours
T1 construct: purchased Bachem Corp
Experimental: CuNCs modified with different ligands were prepared according to literatures. Thioflavin T (abbreviation: ThT) is a highly sensitive fluorescent marker used to identify the presence of amyloid. […] When ThT encounters amyloid polypeptide or protein with a fiber structure, it will immediately adjacent to the amyloid polypeptides or proteins and its fluorescence intensity will increase exponentially. Therefore, ThT is widely used as a maker to monitor amyloidosis of peptides or proteins. This embodiment adopts ThT fluorescent labeling method to monitor the kinetics process of fibrosis aggregation of α-syn in the presence of CuNCs. The specific experiment method is as follows.
Pretreatment of α-syn monomers: Dissolve freeze-dried α-syn powder (Bachem Corp.) in HFIP to obtain a 1 g/L α-syn solution. […]
Sample preparation and detection: Add ligand modified CuNCs to α-syn PBS solution to reach final concentrations of 5 ppm and 35 μM for CuNCs and α-syn, respectively. Incubate the solution continuously in a 96-well plate at 37° C., monitor the fluorescence intensity by microplate reader every 10 minutes, and characterize the kinetics process of α-syn aggregation through the change of fluorescence intensity of ThT. […]

RGC-5 cells = experiment: H2O2-induced glaucoma cell (RGC-5) model, CCK-8 cell viability; type: cell-based; details: 20 ppm of GSH and 100 μM of H2O2, 24 hours
Experimental: RGC-5 cells in logarithmic growth phase were diluted with complete medium (DMEM medium+10% FBS+1% penicillin-streptomycin) into a cell suspension with a density of 5×10^4/mL, inoculated with 100 μL per well in 96-well plates. The cells were cultured at 37° C. in a 5% CO2 incubator. After the cells were attached, the original culture solution was discarded, and 50 μL of different concentrations of CuNCs prepared from maintenance medium (DMEM medium+2% FBS+1% penicillin-streptomycin) were added to different wells. The final concentrations were 0.5, 5 and 20 ppm respectively (i.e. groups 5, 6, 7 respectively in FIG. 19). After pretreatment for 2 h, about 50 μL of H2O2 (final concentration of 105 μM) was added. The cells were incubated for 24 h, and 10% CCK-8 was added to each well for 4 h. The absorbance values of the respective wells were measured at the wavelength of 450 nm to evaluate the protection effect of CuNCs against H2O2-induced damages. In the above experiments, provided were a blank control group in which cells were not treated, a model control group in which cells were treated with 105 μM H2O2, a CuNCs control group in which 100 ppm of CuNCs were added but no H2O2 was added, and a ligand control group in which 20 ppm ligand and 105 μM H2O2 were added (i.e. groups 1, 2, 3, 4 respectively in FIG. 19).

SH-sy5y cells = experiment: MPP+ induced PD cells (SH-sy5y) model, CCK-8 cell viability; details: 1 mM MPP+, ligand 20 ppm, 24 h
Experimental: 1) Take SH-sy5y cells in the logarithmic growth phase. Dilute them with complete medium to form a cell suspension with a cell density of 5×10^4/mL. Plate 200 μl of the cell suspension into each well of a 96-well plate and cultivate in an environment of 37° C. and 5% CO2 in an incubator. The sample is added after the cells are attached.
2) Add 100 μL of ligand-modified CuNCs samples or ligand-modified copper nanoparticles samples with different particle sizes, which are prepared using maintenance medium to make the final concentration being 0.1 ppm, 1 ppm, 5 ppm, 10 ppm and 20 ppm, respectively. After 2 hours of pretreatment with ligand-modified CuNCs, the different groups of cells were added with MPP^+ (final concentration is 1 mM). […] Then the cells were cultured at 37° C. for 24 h. After centrifugation to remove the culture medium, 100 μL maintenance medium containing 10% CCK-8 were added to each well, and then incubate for 4 h. The absorbance of each well was then measured at 450 nm. The absorbance could reflect the pre-protective and curative effects of ligand-modified CuNCs against MPP^+ lesion.

SMILES: N[C@@H](CCC(=O)N[C@@H](CS)C(=O)NCC(=O)O)C(=O)O [GSH, L-glutathione]
- α-syn aggregation and fibrosis (ThT fluorescence intensity) (α-syn): does not have an obvious effect
- cell viability, ligand control group (RGC-5 cells): 56.5±5.9%
- cell viability, ligand control group (SH-sy5y cells): 56.9±3.4%
